# Measurements as given in patent US9303042B2, “Triazolothienopyrimidine compound inhibitors of urea transporters and methods of using inhibitors” (The Regents of the University of California, priority 2012, dated 2016).
# Read-outs that look alike come from different tables or passages of the source.
# Assays:
# [1] = In vitro metabolic stability in hepatic microsomes; type: in vitro ADME, rat; conditions: for % Remaining after 10 min incubation with liver microsomes: compound 5 μM; for % Remaining: parent molecule after 30 min incubation with rat liver microsomes
# Experimental: Compounds, each at 5 μM, were incubated for specified times at 37° C. with rat liver microsomes (1 mg protein/ml; Sigma-Aldrich, St. Louis, Mo.) in potassium phosphate buffer (100 mM) containing 1 mM NADPH. The mixture was then chilled on ice, and 0.5 ml of ice-cold ethyl acetate was added.
# UT-B = target: T1, UT-B (Mus musculus, UniProt Q8VHL0); test: Erythrocyte lysis assay of UT-B inhibition; type: cell-based; set-up: Screening was performed using mouse erythrocytes, which strongly express UT-B; endogenous in cells; host or cells: erythrocytes in whole blood of wild-type CD1 mice; conditions: read-out: IC50
# T1 sequence (Q8VHL0 1-384): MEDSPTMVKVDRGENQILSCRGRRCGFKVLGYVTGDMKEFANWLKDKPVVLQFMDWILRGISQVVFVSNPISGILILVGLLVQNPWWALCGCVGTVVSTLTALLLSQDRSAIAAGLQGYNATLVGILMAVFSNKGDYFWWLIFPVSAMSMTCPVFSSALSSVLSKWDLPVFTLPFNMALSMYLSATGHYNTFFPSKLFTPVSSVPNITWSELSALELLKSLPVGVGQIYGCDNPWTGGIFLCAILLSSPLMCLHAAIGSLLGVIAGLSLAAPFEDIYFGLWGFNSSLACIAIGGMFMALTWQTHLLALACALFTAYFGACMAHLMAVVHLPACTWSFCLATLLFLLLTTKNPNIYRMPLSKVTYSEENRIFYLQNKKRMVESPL
# Experimental: Screening was performed using mouse erythrocytes, which strongly express UT-B and are highly water permeable because the cells also express aquaporin-1 (AQP1) water channels. The screening method involved assay of erythrocyte lysis in response to a large, outwardly directed gradient of acetamide, a urea analog that is transported efficiently by UT-B. A large, outwardly directed gradient of acetamide causes transient cell swelling, but little cell lysis, because UT-B-facilitated acetamide efflux limits water influx (see FIG. 1A). UT-B inhibition prevents acetamide efflux, allowing unopposed cell swelling and consequent cell lysis, which was recorded by reduced near-infrared light absorption at 710 nm.
# Primary screening was done using a collection of 100,000 diverse, drug-like compounds from commercial sources (ChemDiv, San Diego, Calif.; Asinex, Winston-Salem, N.C.). […] Vigorous mixing was achieved by repeated pipetting. Erythrocyte lysis was quantified by absorbance at 710 nm wavelength, made within 5 min after hypo-osmolar shock. […] For analysis of structure-activity relationships >900 commercially available analogs (ChemDiv and Asinex) were tested.
# [2] = LC/MS analysis of compound in mouse kidney, blood and urine; conditions: for many hours after intraperitoneal bolus 400 μg
# Experimental: (§1) In some studies, mice were placed on low, normal or […] diets (4%, 20% or 40% casein, Harlan Labs.) for 1 week prior study of dDAVP effects. […] Urea concentration was determined by a colorimetric enzymatic assay as described above. Measurements were also done in the absence of dDAVP in which urine was collected during free access to food and water.
# Kidneys were weighed, mixed with acetic acid (100 μL per 1 g tissue) and ethyl acetate (10 mL per 1 g tissue), and homogenized.
# mice = test: Urinary concentration in mice; type: in vivo, mouse
# Experimental: as §1, with “water. […]” for “water.”
# CFTR = target: T2, CFTR (Homo sapiens, UniProt P13569); test: CFTR chloride conductance by short-circuit current; type: cell-based; conditions: 20 μM
# T2 construct: expressed in transfected cells
# T2 sequence (P13569 whole entry): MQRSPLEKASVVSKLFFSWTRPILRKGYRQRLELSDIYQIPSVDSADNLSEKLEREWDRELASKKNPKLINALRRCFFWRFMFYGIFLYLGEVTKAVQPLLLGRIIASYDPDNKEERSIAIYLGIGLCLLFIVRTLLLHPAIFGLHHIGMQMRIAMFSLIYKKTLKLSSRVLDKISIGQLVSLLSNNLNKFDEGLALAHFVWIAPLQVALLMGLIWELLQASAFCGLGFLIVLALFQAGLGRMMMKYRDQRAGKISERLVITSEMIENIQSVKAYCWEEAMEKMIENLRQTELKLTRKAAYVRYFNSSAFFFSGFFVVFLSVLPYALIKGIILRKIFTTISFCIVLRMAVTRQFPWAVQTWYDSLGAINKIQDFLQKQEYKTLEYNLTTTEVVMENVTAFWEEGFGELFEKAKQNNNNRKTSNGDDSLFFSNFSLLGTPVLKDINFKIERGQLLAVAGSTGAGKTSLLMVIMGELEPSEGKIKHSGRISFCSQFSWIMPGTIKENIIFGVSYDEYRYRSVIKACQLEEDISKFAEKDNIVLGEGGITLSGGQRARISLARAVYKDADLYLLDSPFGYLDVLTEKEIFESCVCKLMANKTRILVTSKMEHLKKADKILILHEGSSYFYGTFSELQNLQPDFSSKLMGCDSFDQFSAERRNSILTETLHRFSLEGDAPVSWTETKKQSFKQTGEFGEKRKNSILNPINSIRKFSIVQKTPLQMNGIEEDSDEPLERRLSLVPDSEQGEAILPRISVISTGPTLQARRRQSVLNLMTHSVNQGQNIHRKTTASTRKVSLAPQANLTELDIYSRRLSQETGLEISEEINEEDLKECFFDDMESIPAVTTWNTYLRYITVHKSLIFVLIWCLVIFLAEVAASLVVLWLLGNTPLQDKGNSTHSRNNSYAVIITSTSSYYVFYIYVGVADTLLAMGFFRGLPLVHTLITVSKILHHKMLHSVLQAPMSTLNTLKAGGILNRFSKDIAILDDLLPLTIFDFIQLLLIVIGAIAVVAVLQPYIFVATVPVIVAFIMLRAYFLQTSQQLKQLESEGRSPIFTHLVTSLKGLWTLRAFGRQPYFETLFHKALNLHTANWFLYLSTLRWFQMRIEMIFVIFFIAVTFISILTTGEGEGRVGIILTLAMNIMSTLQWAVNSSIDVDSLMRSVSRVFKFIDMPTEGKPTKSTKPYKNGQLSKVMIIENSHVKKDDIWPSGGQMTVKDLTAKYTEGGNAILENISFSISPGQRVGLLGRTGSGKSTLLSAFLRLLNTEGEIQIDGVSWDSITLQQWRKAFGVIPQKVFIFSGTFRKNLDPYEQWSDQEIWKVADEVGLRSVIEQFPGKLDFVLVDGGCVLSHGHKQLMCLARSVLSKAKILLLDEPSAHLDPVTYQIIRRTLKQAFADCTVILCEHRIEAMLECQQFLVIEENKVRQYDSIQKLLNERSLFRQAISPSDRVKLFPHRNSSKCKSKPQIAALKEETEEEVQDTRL
# [3] = Table 1, commercially available analogues, erythrocyte lysis assay
# [4] = Table 2, synthesized inhibitors, red blood cell lysis assay (n = 3), single-site saturation model
% Remaining after 10 min incubation with liver microsomes ([1]; NADPH) [%],IC50 (UT-B; [3]) [nM],Molecule,% Remaining [1] [%],IC50 (UT-B; [4]) [nM],also measured
41,384,"CCc1ccc(S(=O)(=O)c2nnn3c2nc(NCc2ccc(F)cc2)c2sccc23)cc1 [Compound 2ca, [3-(4-ethyl-benzenesulfonyl)-thieno[2,3-e][1,2,3]triazolo[1,5-a]pyrimidin-5-yl]-(4-fluoro-benzyl)-amine]",,,
4,948,CCc1ccc(S(=O)(=O)c2nnn3c2nc(NC(C)C)c2sccc23)cc1 [Compound 2ce],,,
<2,433,"CCc1ccc(S(=O)(=O)c2nnn3c2nc(NCCCOC(C)C)c2sccc23)cc1 [Compound 2cf, {3-[4-ethyl-benzenesulfonyl]-thieno[2,3-e][1,2,3]triazolo[1,5-a]pyrimidin-5-yl}-3-(1-methylethoxyl)propyl-amine]",,,
2,1500,CCc1ccc(S(=O)(=O)c2nnn3c2nc(NCCCN2CCCC2=O)c2sccc23)cc1 [Compound 2cg],,,
61,1450,Cc1ccc(C)c(S(=O)(=O)c2nnn3c2nc(NCCC(C)C)c2sccc23)c1 [Compound 2cj],,,
57,865,CCCCNc1nc2c(S(=O)(=O)c3cc(C)ccc3C)nnn2c2ccsc12 [Compound 2cn],,,
29,1190,"COCCNc1nc2c(S(=O)(=O)c3cc(C)ccc3C)nnn2c2ccsc12 [Compound 2co, {3-[2,5-dimethyl-benzenesulfonyl]-thieno[2,3-e][1,2,3]triazolo[1,5-a]pyrimidin-5-yl}-2-methoxyethyl-amine]",,,
26,1400,"COCCCNc1nc2c(S(=O)(=O)c3cc(C)ccc3C)nnn2c2ccsc12 [Compound 2cr, {3-[2,5-dimethyl-benzenesulfonyl]-thieno[2,3-e][1,2,3]triazolo[1,5-a]pyrimidin-5-yl}-3-methoxypropyl-amine]",,,
53,959,COCCNc1nc2c(S(=O)(=O)c3ccc(Br)cc3)nnn2c2ccsc12 [Compound 2ct],,,
76,1900,CCCCNc1nc2c(S(=O)(=O)c3ccc(Br)cc3)nnn2c2ccsc12 [Compound 2cu],,,
,,"CC(C)c1ccc(S(=O)(=O)c2nnn3c2nc(NCc2ccco2)c2sccc23)cc1 [Compound 3b, Furan-2-ylmethyl-[3-(4-isopropyl-benzenesulfonyl)-thieno[2,3-e][1,2,3]triazolo[1,5-a]pyrimidin-5-yl]-amine]",>99,16600,
,,"O=S(=O)(c1ccc(C(F)(F)F)cc1)c1nnn2c1nc(NCc1cccs1)c1sccc12 [Compound 3c, Thiophen-2-ylmethyl-[3-(4-trifluoromethyl-benzenesulfonyl)-thieno[2,3-e][1,2,3]triazolo[1,5-a]pyrimidin-5-yl]-amine]",99,537,metabolic stability (in words) ([1]; hepatic microsomes): improved metabolic stability
,,"O=S(=O)(c1ccc(OC(F)(F)F)cc1)c1nnn2c1nc(NCc1cccs1)c1sccc12 [Compound 3d, Thiophen-2-ylmethyl-[3-(4-trifluoromethoxy-benzenesulfonyl)-thieno[2,3-e][1,2,3]triazolo[1,5-a]pyrimidin-5-yl]-amine]",95,1120,metabolic stability (in words) ([1]; hepatic microsomes): improved metabolic stability
,,"COc1ccc(CNc2nc3c(S(=O)(=O)c4ccc(C(C)C)cc4)nnn3c3ccsc23)cc1 [Compound 3e, [3-(4-Isopropyl-benzenesulfonyl)-thieno[2,3-e][1,2,3]triazolo[1,5-a]pyrimidin-5-yl]-(4-methoxy-benzyl)-amine]",7,5290,
,,"COc1ccc(S(=O)(=O)c2nnn3c2nc(NCc2cccs2)c2sccc23)cc1 [Compound 3f, [3-(4-Methoxy-benzenesulfonyl)-thieno[2,3-e][1,2,3]triazolo[1,5-a]pyrimidin-5-yl]-thiophen-2-ylmethyl-amine]",6,104,
,,"O=S(=O)(c1cccs1)c1nnn2c1nc(NCc1cccs1)c1sccc12 [Compound 3g, [3-(Thiophene-2-sulfonyl)-thieno[2,3-e][1,2,3]triazolo[1,5-a]pyrimidin-5-yl]-thiophen-2-ylmethyl-amine]",<5,196,
,,"O=S(=O)(c1ccc(F)cc1)c1nnn2c1nc(NCc1cccs1)c1sccc12 [Compound 3h, [3-(4-Fluoro-benzenesulfonyl)-thieno[2,3-e][1,2,3]triazolo[1,5-a]pyrimidin-5-yl]-thiophen-2-ylmethyl-amine]",27,468,
,,"O=S(=O)(c1ccc(Br)cc1)c1nnn2c1nc(NCc1cccs1)c1sccc12 [Compound 3i, [3-(4-Bromo-benzenesulfonyl)-thieno[2,3-e][1,2,3]triazolo[1,5-a]pyrimidin-5-yl]-thiophen-2-ylmethyl-amine]",60,32,metabolic stability (in words) ([1]; hepatic microsomes): improved metabolic stability
,,"CC(C)c1ccc(S(=O)(=O)c2nnn3c2nc(NCc2cccc4ccccc24)c2sccc23)cc1 [Compound 3j, [3-(4-Isopropyl-benzenesulfonyl)-thieno[2,3-e][1,2,3]triazolo[1,5-a]pyrimidin-5-yl]-naphthalen-1-ylmethyl-amine]",45,> 2500,
,,"CC(F)(F)c1ccc(S(=O)(=O)c2nnn3c2nc(NCc2cccs2)c2sccc23)cc1 [Compound 3k, {3-[4-(1,1-Difluoro-ethyl)-benzenesulfonyl]-thieno[2,3-e][1,2,3]triazolo[1,5-a]pyrimidin-5-yl}-thiophen-2-ylmethyl-amine]",96,,"t1/2 for disappearance in hepatic microsomes ([1]; hepatic microsomes, NADPH): approximately 120 min; stability in vitro compared to UTBinh 14 ([1]; ratio of microsomal t1/2): approximately 40 fold; concentrations in blood, kidney and urine [2]: < 1000 nM; reduction of urine osmolality (mice; 400 μg intraperitoneal, dDAVP 1 h later, vs formulation alone): approximately 0.5 Osm/kg H2O"
,,CFTRinh-172 [reference compound],,,CFTR chloride current (CFTR): blocked
,,"[1-deamino-8-D-arginine]-vasopressin [dDAVP, reference compound]",,,"urine osmolality after dDAVP (mice; control (formulation alone) mice): > 3 Osm/kg H2O; urine osmolality following dDAVP (mice; dDAVP 1 μg/kg intraperitoneal, over several hours): > 3000 mosm/kg H2O"

Molecule,% Remaining after 10 min incubation with liver microsomes ([1]; NADPH) [%],IC50 (UT-B; [3]) [nM],% Remaining [1] [%],IC50 (UT-B; [4]) [nM],also measured
"CCc1ccc(S(=O)(=O)c2nnn3c2nc(NCCCOC)c2sccc23)cc1 [Compound 2cb, {3-[4-ethyl-benzenesulfonyl]-thieno[2,3-e][1,2,3]triazolo[1,5-a]pyrimidin-5-yl}-3-methoxypropyl-amine]",<2,,,,IC50 (UT-B; erythrocyte lysis assay): 212 nM
"CC(C)c1ccc(S(=O)(=O)c2nnn3c2nc(NCc2cccs2)c2sccc23)cc1 [Compound 3a, [3-(4-Isopropylbenzenesulfonyl)-thieno[2,3-e][1,2,3]triazolo[1,5-a]pyrimidin-5-yl]-thiophen-2-ylmethyl-amine]",,125,<5,153,
